Results reported in US20230219931A1, “FUSED HETEROARYL HYDROXAMATES AS STING AGONISTS” (BiSiChem Co., Ltd., priority 2022, published 2023).

System: ISG reporter activity in THP1-Dual cell
Experiment: ISG reporter assay
Format: cell-based
Conditions: Homo sapiens, compounds incubated with cells for 24 hours, QUANTI-Blue, absorbance at 655 nm

SMILES | EC50 [nM]
CCn1nc(C)cc1C(=O)Nc1nc2cc(C(N)=O)cc(OC)c2n1C/C=C/Cn1c(NC(=O)c2cc(C)nn2CC)nc2cc(C(N)=O)cc(OCC#CCC3CCN(C(=O)C4CCN(C(=O)OC(C)(C)C)CC4)CC3)c21 [Example 46, tert-butyl (E)-4-(4-(4-((5-carbamoyl-1-(4-(5-carbamoyl-2-(1-ethyl-3-methyl-1H-pyrazole-5-carboxamido)-7-methoxy-1H-benzo[d]imidazol-1-yl)but-2-en-1-yl)-2-(1-ethyl-3-methyl-1H-pyrazole-5-carboxamido)-1H-benzo[d]imidazol-7-yl)oxy)but-2-yn-1-yl)piperidine-1-carbonyl)piperidine-1-carboxylate] | < 50
CCn1nc(C)cc1C(=O)Nc1nc2cc(C(N)=O)cc(OC)c2n1C/C=C/Cn1c(NC(=O)c2cc(C)nn2CC)nc2cc(C(N)=O)cc(OCC#CCC3CCN(C(=O)N4CCN(C(=O)OC(C)(C)C)CC4)CC3)c21 [Example 47, tert-butyl (E)-4-(4-(4-((5-carbamoyl-1-(4-(5-carbamoyl-2-(1-ethyl-3-methyl-1H-pyrazole-5-carboxamido)-7-methoxy-1H-benzo[d]imidazol-1-yl)but-2-en-1-yl)-2-(1-ethyl-3-methyl-1H-pyrazole-5-carboxamido)-1H-benzo[d]imidazol-7-yl)oxy)but-2-yn-1-yl)piperidine-1-carbonyl)piperazine-1-carboxylate] | < 50
CCn1nc(C)cc1C(=O)Nc1nc2cc(C(N)=O)cc(OC)c2n1C/C=C/Cn1c(NC(=O)c2cc(C)nn2CC)nc2cc(C(N)=O)cc(OCC#CCC3CCN(S(=O)(=O)C4CC4)CC3)c21 [Example 48, (E)-1-(4-(5-carbamoyl-2-(1-ethyl-3-methyl-1H-pyrazole-5-carboxamido)-7-methoxy-1H-benzo[d]imidazol-1-yl)but-2-en-1-yl)-7-((4-(1-(cyclopropylsulfonyl)piperidin-4-yl)but-2-yn-1-yl)oxy)-2-(1-ethyl-3-methyl-1H-pyrazole-5-carboxamido)-1H-benzo[d]imidazole-5-carboxamide] | < 50
CCn1nc(C)cc1C(=O)Nc1nc2cc(C(N)=O)cc(OC)c2n1C/C=C/Cn1c(NC(=O)c2cc(C)nn2CC)nc2cc(C(N)=O)cc(OCC#CCC3CCN(S(=O)(=O)N4CCN(C(=O)OC(C)(C)C)CC4)CC3)c21 [Example 49, tert-butyl (E)-4-((4-(4-((5-carbamoyl-1-(4-(5-carbamoyl-2-(1-ethyl-3-methyl-1H-pyrazole-5-carboxamido)-7-methoxy-1H-benzo[d]imidazol-1-yl)but-2-en-1-yl)-2-(1-ethyl-3-methyl-1H-pyrazole-5-carboxamido)-1H-benzo[d]imidazol-7-yl)oxy)but-2-yn-1-yl)piperidin-1-yl)sulfonyl)piperazine-1-carboxylate] | < 50
CCn1nc(C)cc1C(=O)Nc1nc2cc(C(N)=O)cc(OC)c2n1C/C=C/Cn1c(NC(=O)c2cc(C)nn2CC)nc2cc(C(N)=O)cc(OCC#CCC3CN(C(=O)OC(C)(C)C)C3)c21 [Example 50, tert-butyl (E)-3-(4-((5-carbamoyl-1-(4-(5-carbamoyl-2-(1-ethyl-3-methyl-1H-pyrazole-5-carboxamido)-7-methoxy-1H-benzo[d]imidazol-1-yl)but-2-en-1-yl)-2-(1-ethyl-3-methyl-1H-pyrazole-5-carboxamido)-1H-benzo[d]imidazol-7-yl)oxy)but-2-yn-1-yl)azetidine-1-carboxylate] | < 50
CCn1nc(C)cc1C(=O)Nc1nc2cc(C(N)=O)cc(OC)c2n1C/C=C/Cn1c(NC(=O)c2cc(C)nn2CC)nc2cc(C(N)=O)cc(OCC#CCC3CCN(C(=O)OC(C)(C)C)C3)c21 (stereo not shown) [Example 51, tert-butyl (E)-3-(4-((5-carbamoyl-1-(4-(5-carbamoyl-2-(1-ethyl-3-methyl-1H-pyrazole-5-carboxamido)-7-methoxy-1H-benzo[d]imidazol-1-yl)but-2-en-1-yl)-2-(1-ethyl-3-methyl-1H-pyrazole-5-carboxamido)-1H-benzo[d]imidazol-7-yl)oxy)but-2-yn-1-yl)pyrrolidine-1-carboxylate] | < 50
CCn1nc(C)cc1C(=O)Nc1nc2cc(C(N)=O)cc(OC)c2n1C/C=C/Cn1c(NC(=O)c2cc(C)nn2CC)nc2cc(C(N)=O)cc(OCC#CCC3CCCN(C(=O)OC(C)(C)C)C3)c21 (stereo not shown) [Example 52, tert-butyl (E)-3-(4-((5-carbamoyl-1-(4-(5-carbamoyl-2-(1-ethyl-3-methyl-1H-pyrazole-5-carboxamido)-7-methoxy-1H-benzo[d]imidazol-1-yl)but-2-en-1-yl)-2-(1-ethyl-3-methyl-1H-pyrazole-5-carboxamido)-1H-benzo[d]imidazol-7-yl)oxy)but-2-yn-1-yl)piperidine-1-carboxylate] | < 50
